Structures can show the parent of a compound that is named as a salt. Where two headings read alike, the source gives them in different places.
Experiments:
[1] = Comparison tests as regards the undesired side effects, overall statement; details: test not shown in the table; compared with 2-(1-pyrrolidinyl)ethyl ester
in vivo [2] = details: mouse, po, read-out: Acute Toxicity p.o. LD50 (mg/kg) in the mouse
[3] = Antipyretic effect: temperature increase by beer yeast, rectal temperature, oral administration; format: in vivo; details: p.o., rat, rectal temperature 5, 6, 7 and 8 hours after administration, read-out: Antipyretic Effect p.o. of 50
Description: (§1) The antipyretic effect was determined by increasing the rat's temperature by means of beer yeast by 20% and the rectal temperature of the rat was measured 5, 6, 7 and 8 hours after the administration. The percentage of increase compared to the comparison sample was measured.

in vivo [4] = details: rat, po
rat = details: LD50, species not stated in the sentence itself
[5] = rat, in vivo
[6] = rat, in vivo; remark: listed apart in the source
[7] = rat, in vivo; remark: listed apart in the source
[8] = rat, in vivo; remark: listed apart in the source
Description: The ulceration effect was determined in three groups of 6 rats each. […] The ulceration effect was evaluated microscopically by means of an ulceration index which corresponds to the sum of evaluations of each animal, multiplied by the percentage of animals above null, divided by the total number of animals (0=normal; 1=minor haemorrhages; 2=considerable haemorrhages; 3=small ulcus; 4=large ulcus, more than 2 mm; 5=perforated ulcus).
The same animals were examined for the degree of injury probability of stomach tissue by means of a microscopic quantification of different degrees of lesions: no change, haemorrhages, necrosis.

[9] = Comparison tests as to the pharmacological effect (analgetic/antiphlogistic and antipyretic), overall statement; format: in vivo, rat; details: B compared with A; C compared with pyrrolidine ester
Description: The analgetic effect was measured by the test of inhibition of the contortions generated by peritoneal administration of 0.1 ml acetic acid (3%).
The antiinflammatory effect was evaluated by the Paw-Edema method in which carragenin (1%) was used and the percentage of the decrease of the volume increase was measured at the Paw of the rat.
as §1

SMILES | undesired side effects, in words [1] | LD50 (in vivo [2]) [mg/kg] | ED50 [3] [mg/kg] | LD50 (in vivo [4]) [mg/kg] | acute toxicity, in words (rat) | acute toxicity, in words (rat; listed as ketorolac trometamole salt) | Possibility of Injuries of Stomach Tissue: animals with haemorrhages [5] [animals] | Possibility of Injuries of Stomach Tissue: animals with necrosis [5] [animals] | Possibility of Injuries of Stomach Tissue: animals without changes [5] [animals] | test of possible injuries of stomach tissue, in words [5] | destruction index of the gastric mucosa, in words [6] | ulceration index relative to that detected with (A) [7] | acute toxicity, in words (rat; listed as oxalate of 2-(1-pyrrolidinyl)ethyl ester of ketorolac) | undesired side effects compared with trometamole salt of ketorolac, in words [8] | pharmaceutical/pharmacological effect (analgetic/antiphlogistic and antipyretic), in words [9] | ulceration index relative to that of 2-(1-pyrrolidinyl)ethyl ester [7]
O=C(c1ccccc1)c1ccc2n1CCC2C(=O)OCCN1CCCCC1 (centres unmarked) [2-(1-piperidinyl)ethyl ester] | the said advantages will not be obtained |  |  |  |  |  |  |  |  |  |  |  |  |  |  | 
O=C(c1ccccc1)c1ccc2n1CCC2C(=O)OCCN1CCOCC1 (centres unmarked) [2-(4-morpholinyl)ethyl ester] | the said advantages will not be obtained |  |  |  |  |  |  |  |  |  |  |  |  |  |  | 
O=C(c1ccccc1)c1ccc2n1CCC2C(=O)O (centres unmarked) [A] |  | 118 | ~3 | 105 | acceptable acute toxicity | comparable and acceptable | 2 | 4 | 0 | all show haemorrhages or necrosis |  |  |  |  |  | 
O=C(c1ccccc1)c1ccc2n1CCC2C(=O)OCCN1CCCC1 (centres unmarked) [B, oxalate of 2-(1-pyrrolidinyl)ethyl ester of ketorolac] |  | 93 | > 3 | 235 | acceptable acute toxicity |  | 0 | 0 | 6 | all animals remain unchanged | considerably lower than with (A) | merely one third of that detected with (A) | comparable and acceptable | considerably less undesired side effects than the trometamole salt of ketorolac |  | 
CCN(CC)CCOC(=O)C1CCn2c(C(=O)c3ccccc3)ccc21 (centres unmarked) [C, maleate of 2-(diethylamino)ethyl ester of ketorolac] |  | 198 | ~3 |  | comparable and acceptable |  | 0 | 5 | 1 | much greater with the former than with the latter |  |  |  |  | practically the same | twice as high as that of 2-(1-pyrrolidinyl)ethyl ester
